Experimental data from patent publication US20230149507A1, “TREATMENT OF ALT CANCERS” (INSTITUTO DE MEDICINA MOLECULAR JOÃO LOBO ANTUNES, priority 2019, published 2023).

How the values were obtained:
U-2 OS cells [1] = assay: C-circle assay in cells overexpressing FANCM variants; type: cell-based, human; settings: stable overexpression, compared to vector control
Source text: (§1) (a) Schematic of FANCM domain interactions, mutations or deletions. For clarity, domains have been color coded by functional role (bottom panel). (b) Quantitation of metaphase-TIFs in U-2 OS cells stably overexpressing wild-type (FANCM+) or FANCM mutants. Scatterplot bars represent the mean±SEM. Out of 3 experiments, n≥110 metaphases scored for each mutant, *p<0.05, **p<0.005, Mann-Whitney test. (c) Quantitation of fragile telomeres in U-2 OS cells stably overexpressing wild-type (FANCM+) or FANCM mutants. Scatterplot bars represent the mean±SEM. Out of 3 experiments, n>100 metaphases scored for each mutant, *p<0.05, **p<0.005, Mann-Whitney test. (d) Representative dot blots and quantitation of C-circle assays in U-2 OS cells stably overexpressing wild-type (FANCM+) or FANCM domain mutants. C-circles were normalized to the mean of vector control. Error bars represent mean±SEM from n=3 experiments, *p<0.05, **p<0.005, Student's t-test. (e) Single molecule analysis of telomeric extension events (top panel) and length of extension events (bottom panel) in U-2 OS cells stably overexpressing wild-type (FANCM+) or FANCM domain mutants. Error bars represent mean±SEM of n≥350 fibers out of 3 experiments, *p<0.05, **p<0.005, Student's t-test.
FIG. 23. Defects in ALT phenotype suppression are exacerbated by overexpression of a double-mutant (DM) FANCM, in which both the MM2 domain (FF>AA) and the translocase domain (K117R) of FANCM are mutated. (a) Representative dot blots and quantitation of C-circle assays in U-2 OS cells stably overexpressing wild-type (WT) or FANCM domain mutants (K117R, FF>AA; DM). C-circles were normalized to the mean of empty vector control (EV). Error bars represent mean±SEM from n=3 experiments, *p<0.05, **p<0.005, Student's t-test. (b) Quantitation of APB frequency in U-2 OS cells overexpressing wild-type (WT) or FANCM mutants. Scatterplot bars represent the mean±SEM. Out of three experiments, n=150 cells were scored for each mutant, **p<0.005, Mann-Whitney test. (c) Quantitation of metaphase-TIFs in U-2 OS cells stably overexpressing wild-type (WT) or FANCM mutants. Scatterplot bars represent the mean±SEM. Out of three experiments, n=120 metaphases scored for each mutant, *p<0.05, **p<0.005, Mann-Whitney test. All statistical comparisons are relative to EV control.
Empty vector and wild-type FANCM (pCMV6-Myc-DDK) constructs were obtained from Origene Technologies. Wild type FANCM (SEQ ID NO: 2) and FANCM mutants (SEQ ID NOs: 19 to 28) were cloned into the pLenti-C-Myc-DDK-IRES-Neo backbone (Origene Technologies) by restriction enzyme subcloning of gene blocks synthesized by Integrated DNA Technologies (IDT). Lentivirus was produced by the Vector and Genome Engineering Facility (Children's Medical Research Institute). For stable overexpression, cells were transduced with lentivirus, allowed to recover for 24 h, and subject to G418 selection. Cells were maintained in G418 to ensure sustained overexpression.
C-circles were amplified with Phi29 polymerase using dATP, dTTP and dGTP overnight. Products were dot blotted onto Biodyne B membranes (Pall) and pre-hybridised in PerfectHyb Plus (Sigma) for at least 30 min. Radiolabeled telomeric C-probe was then added and blots were hybridized overnight at 37° C. (Henson et al., 2009). Blots were washed with 0.5×SSC, 0.1% SDS three times for 5 min each then exposed to phosphor screen. Imaging was performed on the Typhoon FLA 7000 system (GE Healthcare) with a PMT of 750 V.

U-2 OS cells [2] = assay: Single molecule analysis of telomeric extension events (SMAT) in cells overexpressing FANCM variants; type: cell-based, human; settings: overexpression
Source text: as §1, with “(e) Single molecule analysis of telomeric extension events (top panel) and length of extension events (bottom panel) in U-2 OS cells stably overexpressing wild-type (FANCM+) or FANCM domain mutants. Error bars represent mean±SEM of n≥350 fibers out of 3 experiments, *p<0.05, **p<0.005, Student's t-test.” left out
Cells were labelled with 100 μM CIdU for 5 h prior to harvesting by trypsinization. […] Halogenated nucleotides were detected with a rat anti-CldU monoclonal antibody (Accurate) and Alexa Fluor 488-conjugated goat anti-rat antibody (Molecular Probes). Telomere fibers were detected on a Zeiss Axio Imager microscope with ApoTome module and analyzed with Zen software (Zeiss).

| Substance | C-circle levels (U-2 OS cells [1]) | number of telomere extension events (U-2 OS cells [2]) |
| --- | --- | --- |
| FF>AA: FANCM mutant (SEQ ID NO: 25), double substitution F1232A/F1236A within the MM2 domain | approximate two-fold increase in C-circles | significant increase in the number of extension events |
| K117R: FANCM mutant (SEQ ID NO: 20) substituted at K117R, DEAH domain disrupted | did not cause a change in C-circle levels |  |
